# According to ChEMBL document CHEMBL2413034, “Novel β-dicarbonyl derivatives as inhibitors of aminopeptidase N (APN)” (Bioorg Med Chem Lett, 2013):
# Active and inactive are the calls of the source. The calls are words filed in the database; no cut-off is given here.
# Assays:
# [1] = target: Histone deacetylase 1/3/5/8 (Homo sapiens, UniProt Q13547+O15379+Q9UQL6+Q9BY41); experiment: Inhibition of HDAC1/HDAC3/HDAC5/HDAC8 in human HeLa nuclear extract using Boc-Lys(acetyl)-AMC as substrate incubated for 5 mins prior to substrate measured after 30 mins by spectrophotometric analysis; assay type: protein assay
# [2] = Metal chelating activity assessed as affinity to Zn2+ by spectrophotometry; assay type: functional
# Aminopeptidase N = target: T1, Aminopeptidase N (Sus scrofa, UniProt P15145); experiment: Inhibition of pig microsomal aminopeptidase N using L-leu-p-nitroanilide as substrate incubated for 5 mins prior to substrate addition measured after 30 mins by spectrophotometric analysis
# T1 sequence (P15145 whole entry): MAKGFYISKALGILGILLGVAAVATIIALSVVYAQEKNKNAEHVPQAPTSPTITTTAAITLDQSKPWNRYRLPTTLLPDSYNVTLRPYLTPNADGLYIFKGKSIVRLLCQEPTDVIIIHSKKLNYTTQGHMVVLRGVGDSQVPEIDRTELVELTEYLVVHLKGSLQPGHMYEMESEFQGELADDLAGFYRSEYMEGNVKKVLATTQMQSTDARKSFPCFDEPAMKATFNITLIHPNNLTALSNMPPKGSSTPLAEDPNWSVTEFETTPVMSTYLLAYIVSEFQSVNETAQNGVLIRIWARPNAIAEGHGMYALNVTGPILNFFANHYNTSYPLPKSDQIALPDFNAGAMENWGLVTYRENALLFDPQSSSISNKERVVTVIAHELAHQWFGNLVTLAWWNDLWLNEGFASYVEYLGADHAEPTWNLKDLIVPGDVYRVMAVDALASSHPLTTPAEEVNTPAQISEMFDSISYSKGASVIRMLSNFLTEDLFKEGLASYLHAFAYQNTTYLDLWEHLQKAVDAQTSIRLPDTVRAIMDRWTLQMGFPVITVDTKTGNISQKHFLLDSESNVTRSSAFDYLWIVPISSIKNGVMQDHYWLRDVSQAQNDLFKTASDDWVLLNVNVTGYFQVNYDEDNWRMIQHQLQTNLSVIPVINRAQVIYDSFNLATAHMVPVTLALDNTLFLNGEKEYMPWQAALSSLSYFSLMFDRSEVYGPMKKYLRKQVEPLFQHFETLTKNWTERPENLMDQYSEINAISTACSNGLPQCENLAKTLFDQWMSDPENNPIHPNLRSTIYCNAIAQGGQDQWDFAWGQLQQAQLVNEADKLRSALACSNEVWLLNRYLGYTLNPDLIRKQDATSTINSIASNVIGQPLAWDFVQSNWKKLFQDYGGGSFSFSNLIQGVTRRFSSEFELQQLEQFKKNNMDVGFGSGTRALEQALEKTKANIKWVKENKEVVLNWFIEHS
Compound,IC50 [1],IC50 (Aminopeptidase N),Activity [2]
CC(C)C[C@H](NC(=O)[C@@H](O)[C@H](N)Cc1ccccc1)C(=O)O [UBENIMEX],> 1000 µM,,
CC(C)C[C@H](NC(=O)CC(=O)[C@H](N)Cc1ccccc1)C(=O)O,> 1000 µM,1.41 µM,Active
COC(=O)[C@@H](NC(=O)CC(=O)[C@H](N)Cc1ccccc1)c1ccccc1,> 1000 µM,6.03 µM,
COC(=O)[C@H](CC(C)C)NC(=O)CC(=O)[C@@H](Cc1ccccc1)NC(=O)OC(C)(C)C,> 1000 µM,> 1000 µM,
COC(=O)CC(=O)[C@H](N)Cc1ccccc1,> 1000 µM,984 µM,
N[C@H](Cc1ccccc1)C(=O)CC(=O)N[C@H](C(=O)O)c1ccccc1,> 1000 µM,3.82 µM,
COc1cc(/C=C/C(=O)CC(=O)/C=C/c2ccc(O)c(OC)c2)ccc1O [CURCUMIN],,15.5 µM,
COC(=O)[C@H](CC(C)C)NC(=O)CC(=O)[C@H](N)Cc1ccccc1,> 1000 µM,5.04 µM,

# More lines, main results first:
IC50 [1],IC50 (Aminopeptidase N),Compound,Activity [2]
> 1000 µM,> 1000 µM,CC(C)(C)OC(=O)N[C@H](Cc1ccccc1)C(=O)CC(=O)OCc1ccccc1,
> 1000 µM,4.73 µM,N[C@H](Cc1ccccc1)C(=O)CC(=O)N[C@@H](Cc1ccccc1)C(=O)O,
> 1000 µM,> 1000 µM,COC(=O)CC(=O)[C@@H](Cc1ccccc1)NC(=O)OC(C)(C)C,
> 1000 µM,> 1000 µM,COC(=O)[C@@H](NC(=O)CC(=O)[C@@H](Cc1ccccc1)NC(=O)OC(C)(C)C)c1ccccc1,
> 1000 µM,7.02 µM,COC(=O)[C@H](Cc1ccccc1)NC(=O)CC(=O)[C@H](N)Cc1ccccc1,
> 1000 µM,> 1000 µM,COC(=O)[C@H](Cc1ccccc1)NC(=O)CC(=O)[C@@H](Cc1ccccc1)NC(=O)OC(C)(C)C,
> 1000 µM,711 µM,N[C@H](Cc1ccccc1)C(=O)CC(=O)OCc1ccccc1,
